Measurements reported in patent US20060135608A1, “Eicosapentaenoic acid (epa) for treating anorexia nervosa (an) and bulimia” (priority 2002, published 2006).

Experiments:
[1] = system: patients with anorexia nervosa; assay: Example 2: seven patients with anorexia nervosa or related disorders treated with 1 g/day E-EPA; assay type: in vivo, human
From the text: Seven patients underwent treatment of their disorders using EPA. FIGS. 1-5 summarise the results of this study. Participants were given 1 g/day ethyl-EPA (E-EPA) for an initial 3 month period. The E-EPA provided by Laxdale Limited was over 95% pure EPA. If the patient and family wished to continue beyond 3 months, the dose was continued, and in some cases increased beyond 1 g/day. All patients were offered the standard treatment available at the local district health services, including full psychiatric and physical assessment, regular monitoring of physical parameters. Parameters monitored on a monthly basis included the patient's weight and height. BMI, and average body weight and height (ABW) were calculated using Weight 4 Height software (based on 1990 British reference data by the Child Growth Foundation). The following standard psychometric measures were used: EDI-2, BDI-2, CGAS, CGI-S, Morgan-Russell, and patient Likert Scales (including problems, general and improvement).

patient with AN = assay: Example 1: case of a patient with AN treated with 1 g/d ethyl-EPA; assay type: in vivo, human
From the text: A patient presented with a 14-month history of dieting and eating difficulties. These had started with dietary restrictions and excessive exercise and proceeded to laxative abuse. Two months prior to being first seen they had stopped taking all solid food. When first seen their weight was still within the normal range for their height at 55 kg for 1.63 m. However, they had lost 8 kg since stopped solid food, had stopped menstruation and begun to grow the fine, downy “lanugo” hair over their body which is common in AN.
They were treated with a standard AN regime of family therapy, psychotherapy and dietary advice. This was ineffective and over the next two months they lost around 10 kg which necessitated their admission to hospital. At this point they were extremely distressed and unable or unwilling to maintain a conversation. Despite their emaciation they were still preoccupied with being fat and wanted to lose more weight. Their heart rate was very slow and their blood glucose was low, signs of starvation. They were treated as an emergency with compulsory naso-gastric feeding with parental consent. After two weeks of this therapy they had gained a little over 2 kg and begun to eat small amounts by mouth. At the end of this time their family removed them from hospital against medical advice.
Over the following ten days they lost a further 5 kg in weight to 42 kg. Their doctors believed that their life was in danger and so obtained an order for compulsory admission to hospital. At the start of this admission they were treated with 1 g/d of ethyl-eicosapentaenoate (E-EPA). This transformed their response to treatment. […] Their mood and cognitive functions improved and they became normally communicative. Instead of being obsessed by weight and food to the exclusion of everything else, they became interested in all aspects of their life and their future. […] After 12 weeks they were discharged from hospital and their body weight stabilised around a normal 62-65 kg. They took a summer job which they enjoyed and completed successfully and enrolled in a college course.

[2] = Patient 2, 1-year follow-up, dosage increased to 2 g/day in later stages
[3] = Patient 5, after three months, 1 g/day
[4] = Patient 6, end of three months, 1 g/day
[5] = 3 months after discharge, scored 0 to 12

With `CC/C=C\C/C=C\C/C=C\C/C=C\C/C=C\CCCC(=O)OCC` [E-EPA, ethyl-eicosapentaenoate] the ABW [1, 2] was 88.3%, the BMI [1, 2] was 17.74 and the clinical response ([1]; Patient 2, after restart of E-EPA and zinc treatment) was “significant improvement”. The “lowest ABW” value ([1]; Patient 2, after stopping E-EPA at 6 months) was 73%, the clinical response ([1]; Patient 2, by three months, 1 g/day) was “partially improved” and the ABW ([1]; Patient 2, three months, 1 g/day, 84.4% after NG feeding) was 86.34%. For the same compound, the growth in height ([1]; Patient 3, in three months, 1 g/day) was 3 cm, the mental state ([1]; Patient 3, three months, 1 g/day) was “significantly improved” and the BMI ([1]; Patient 3, three months, 1 g/day, 13.3 at referral) was 15.5. For the same compound, the ABW ([1]; Patient 3, three months, 1 g/day, 74.4% at referral) was 81%, the psychometric measures ([1]; Patient 4, 1 g/day) was “marked improvement” and the “weight stabilised, ABW” value ([1]; Patient 4, 1 g/day for a total of 6 months, 83.9% at discharge from paediatric hospital) was “around 85.5%”. The mood ([1]; Patient 4, after two months, 1 g/day) was “dramatic improvement”, the ABW ([1]; Patient 4, within three months after they stopped taking the E-EPA) was 80% and the panic attacks ([1]; Patient 5, E-EPA increased to 4 g/day) was “helped with their panic attacks”. The anxiety [1, 3] was “did not improve”, the “weight, eating habits and mood” value [1, 3] was “dramatic improvement” and the BMI ([1]; Patient 5, after three months, 1 g/day, 17.15 before) was 20. The ABW ([1]; Patient 5, after three months, 1 g/day, 77% before) was 90%, the anorexic symptoms [1, 4] was “complete resolution” and the growth in height [1, 4] was 3 cm. The BMI ([1]; Patient 6, end of three months, 1 g/day, 17.57 at first presentation) was 19.1, the ABW ([1]; Patient 6, end of three months, 1 g/day, 87% at first presentation) was 93.6% and the clinical response ([1]; Patient 6, within the first 4-6 weeks, 1 g/day) was “improved dramatically”. For the same compound, the growth in height ([1]; Patient 7, during three months treatment) was 1.5 cm, the BMI ([1]; Patient 7, end of three months treatment, 1 g/day, 14.8 before) was 16.21 and the ABW ([1]; Patient 7, end of three months treatment, 1 d/day, 78.21 before) was 84.5%. For the same compound, the “clinical response (appetite, mood, self-esteem, psychometric measures)” value ([1]; Patient No 1, after 2 months of treatment) was “remarkable improvement”, the BMI ([1]; Patient No 1, after three months of 1 g E-EPA, 16.9 at hospital admission) was 22.8 and the ABW ([1]; Patient No 1, after three months of 1 g E-EPA, 83.6% at hospital admission) was 111%. For the same compound, the relapse of anorexia ([1]; Patient No 1, one-year follow-up, E-EPA stopped after three months) was “no return of their anorexia”, the “cases with complete recovery” value ([1]; of the seven patients) was “three” and the “cases with partial improvement” value ([1]; of the seven patients) was “four”. The growth response ([1]; patients who had growth delay, during the time of the E-EPA treatment) was “significant growth”, the “deterioration whilst taking the E-EPA” value ([1]; seven patients) was “no patient deteriorated” and the body image perceptions (patient with AN; 1 g/d, over 12 weeks) was “lost their distorted body image perceptions”. The “mood and cognitive functions” value (patient with AN; 1 g/d, over 12 weeks) was “improved”, the eating (patient with AN; 1 g/d, over the following weeks) was “began to eat normally” and the Wt kg (patient with AN; 2nd hospital discharge on EPA (12 weeks, 1 g/d), 42 at 2nd hospital admission) was 57 kg. The “MR-O (Morgan-Russell overall scale)” value (patient with AN; 2nd hospital discharge on EPA, scored 0 to 12, 12 completely normal, 1.2 at 2nd admission) was 12.0, the “MR-A (food intake)” value (patient with AN; 2nd hospital discharge on EPA, scored 0 to 12, 0.0 at 2nd admission) was 12.0 and the “MR-E (overall social-economic-health state)” value (patient with AN; 2nd hospital discharge on EPA, scored 0 to 12, 1.0 at 2nd admission) was 9.0. The “MR-C (mental state)” value (patient with AN; 2nd hospital discharge on EPA, scored 0 to 12, 4.0 at 2nd admission) was 8.0, the Wt kg (patient with AN; 3 months after discharge) was 63 kg and the “MR-A (food intake)” value (patient with AN; [5]) was 12.0. For the same compound, the “MR-C (mental state)” value (patient with AN; [5]) was 12.0, the “MR-E (overall social-economic-health state)” value (patient with AN; [5]) was 11.0 and the “MR-O (Morgan-Russell overall scale)” value (patient with AN; [5]) was 12.0. For the same compound, the body weight stabilised (patient with AN; after discharge from hospital at 12 weeks) was 62 to 65 kg and the body weight (patient with AN; within 12 weeks of 1 g/d, 42 kg at start) was 57 kg.
